Source: PubChem BioAssay (NCI)
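Briefly, cells in 96-well plates were exposed to five compound concentrations for 48 h, and endpoints were estimated by linear interpolation. Here, GI50 denotes the concentration required for 50% inhibition of growth. TGI marks complete inhibition of growth.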

Legend:
Test in all cases: growth of human tumour cells (NCI), 48 h
CAKI-1 renal = test system: CAKI-1 renal
KM12 colon = test system: KM12 colon
LOX IMVI melanoma = test system: LOX IMVI melanoma
NCI-H226 lung = test system: NCI-H226 lung
RXF 393 renal = test system: RXF 393 renal
SK-MEL-28 melanoma = test system: SK-MEL-28 melanoma
SK-OV-3 ovarian = test system: SK-OV-3 ovarian
SW-620 colon = test system: SW-620 colon
T-47D breast = test system: T-47D breast
RPMI-8226 leukemia = test system: RPMI-8226 leukemia

SMILES	TGI (CAKI-1 renal)	TGI (KM12 colon)	TGI (LOX IMVI melanoma)	TGI (NCI-H226 lung)	TGI (RXF 393 renal)	TGI (SK-MEL-28 melanoma)	TGI (SK-OV-3 ovarian)	TGI (SW-620 colon)	TGI (T-47D breast)	GI50 (KM12 colon)	GI50 (LOX IMVI melanoma)	GI50 (NCI-H226 lung)	GI50 (RPMI-8226 leukemia)	TGI (RPMI-8226 leukemia)	GI50 (RXF 393 renal)	GI50 (SK-MEL-28 melanoma)	GI50 (SK-OV-3 ovarian)	GI50 (T-47D breast)
C[C@@]1(O)C2CC3CC1(c1ccccc1)CC(/C3=N/O)/C2=N\O (some centres undefined)	> 100 µM	> 100 µM	> 100 µM	> 100 µM	> 100 µM	> 100 µM	> 100 µM	> 100 µM	> 100 µM									
CCCCN(CCCC)Cc1cc(Nc2ccnc3cc(Cl)ccc23)ccc1O		> 100 µM	> 100 µM	> 100 µM	> 100 µM	> 100 µM	> 100 µM		> 100 µM	> 100 µM	2.81 µM	11.1 µM	6.6 µM	> 100 µM	20.9 µM	43.1 µM	8.83 µM	35.9 µM
C=CCC1(C#N)C(=S)NC2=C(C(=O)CC(C)(C)C2)C1c1ccccc1 (centres undefined)	> 100 µM	> 100 µM	> 100 µM	> 100 µM	> 100 µM	> 100 µM		> 100 µM	> 100 µM					> 100 µM				
O=C(Nc1ccccc1F)c1cc2ccc(O)cc2oc1=Nc1cccc(F)c1	40.6 µM	44.7 µM	22.9 µM			38.7 µM	> 100 µM	32.6 µM	39.3 µM					> 100 µM				
CC(=O)O[C@H]1CC(C)(C)C(=C=C/C(C)=C/C=C/C=C/C=C(C)/C=C2C=C(/C=C/[C@@]34O[C@]3(C)C[C@@H](O)CC4(C)C)C(=O)O/2)[C@](C)(O)C1	98.1 µM	46.5 µM		4.88 µM	20.5 µM	> 100 µM		> 100 µM	> 100 µM					27.9 µM				
COc1ccc(N2C(=O)C3c4[nH]c5ccc(OCc6ccccc6)cc5c4C4CCC(c5ccccc5)CC4C3C2=O)cc1 (centres undefined)	25.8 µM	> 85.7 µM	> 100 µM	> 83.8 µM	21.1 µM		22.6 µM	4.61 µM	77.3 µM									
Cc1ccc(C)c(NC(=O)C(=O)C(C(=O)c2ccc3ccccc3c2)C2OC(=O)c3ccccc32)c1 (centres undefined)	52.6 µM	33.2 µM	35.1 µM	17.2 µM	9.74 µM	34.4 µM	48.9 µM	29.4 µM						> 100 µM				
N#CN1C2CCC1CC(=O)C2	> 100 µM	> 100 µM	> 100 µM			> 100 µM	> 100 µM	> 100 µM	> 100 µM					> 100 µM				
CC(=O)Nc1ccc2c(C)c3c(nc2n1)[nH]c1ccccc13	96.2 µM	47.6 µM	37.9 µM	67.9 µM	> 100 µM			> 100 µM	55.5 µM					55.2 µM				
O=C(O)CN(CC(=O)O)C1CCCCC1N1CC(=O)OC(=O)C1 (centres undefined)	> 100 µM	> 100 µM	> 100 µM	> 100 µM		> 100 µM	> 100 µM	> 100 µM	> 100 µM					> 100 µM				
Cc1ccc(S(=O)(=O)NC(=O)Nc2nnc(S(N)(=O)=O)s2)cc1	> 100 µM	> 100 µM	> 100 µM	> 100 µM	> 100 µM		> 100 µM	> 100 µM						> 100 µM				
Cc1cc(C)nc(NS(=O)(=O)c2ccc(NC(=O)c3c4ccccc4nc4ccccc34)cc2)n1	> 100 µM	> 100 µM	> 100 µM	> 100 µM		> 100 µM	> 100 µM	> 100 µM						> 100 µM				
O=S1(=O)c2ccccc2Oc2ccc(C(/C=N/O)=N/O)cc21	42.2 µM	> 100 µM	41.5 µM	> 100 µM	63.6 µM	> 100 µM	> 100 µM		35.6 µM					53.5 µM				
CCO/C(=N/S(=O)(=O)C(F)(F)F)N(C(C)C)C(C)C	> 100 µM	> 100 µM	> 100 µM		> 100 µM	> 100 µM		> 100 µM	> 100 µM					> 100 µM				
O=C(Nc1ccccc1)N(C1=NCC(CI)S1)c1ccc(F)c(F)c1 (centres undefined)	> 100 µM	> 100 µM	34 µM			38.4 µM	> 100 µM	> 100 µM	> 100 µM					> 100 µM				
CCN(CCCOc1ccccc1)CCN(CC)CCCOc1ccccc1	34 µM	27.8 µM	27.9 µM	46.8 µM	38.5 µM	36.7 µM		70.5 µM						10.4 µM				
C1=C(c2ccccc2)SC(N2CCCCC2)S1 (centres undefined)		> 100 µM	> 100 µM	> 100 µM	> 100 µM		> 100 µM	> 100 µM						> 100 µM				
C=CCn1c(=O)c(C)cn(COCCO)c1=O	> 100 µM	> 100 µM	> 100 µM	> 100 µM	> 100 µM	> 100 µM		> 100 µM	> 100 µM					> 100 µM				
COc1cc2c(c(O)c1O)C(=O)C1CCC(=O)N1C2c1cccc2ccccc12 (centres undefined)		> 50 µM		> 50 µM	> 50 µM	> 50 µM	> 50 µM	> 50 µM	> 50 µM					> 50 µM				
c1ncn(C23C4C5C6C4C2C6C53)n1 (centres undefined)		> 100 µM	> 100 µM	> 100 µM		> 100 µM	> 100 µM	> 100 µM	> 100 µM					> 100 µM				
Cn1c(=O)c2[nH]c(N/N=N/c3nncs3)nc2n(C)c1=O	> 100 µM	> 100 µM	> 100 µM		> 100 µM	> 100 µM	> 100 µM	> 100 µM	> 100 µM									
CCOC(=O)c1ccc(-n2[nH]nc(C(N)=O)c2=O)cc1	> 100 µM	> 100 µM		> 100 µM	> 100 µM	> 100 µM	> 100 µM	> 100 µM	> 100 µM					> 100 µM				
Cc1ccc(Nc2nc3[nH]ccc3c(=O)[nH]2)cc1	> 100 µM	> 100 µM	> 100 µM	> 100 µM	> 100 µM		> 100 µM	> 100 µM	> 100 µM					> 100 µM				
